According to ChEMBL document CHEMBL1138999, “Synthesis and in vitro evaluation of novel derivatives of diphenylsulfide as serotonin transporter ligands” (Bioorg Med Chem Lett, 2006):

Assays:
[1] = biological target: T1, Sodium-dependent serotonin transporter (Homo sapiens, UniProt P31645); assay: Inhibitory activity against SERT
[2] = biological target: Sodium-dependent dopamine transporter (Homo sapiens, UniProt Q01959); assay: Inhibitory activity against DAT
[3] = biological target: Sodium-dependent noradrenaline transporter (Homo sapiens, UniProt P23975); assay: Inhibitory activity against NET
Sodium-dependent noradrenaline transporter, sequence (P23975 whole entry): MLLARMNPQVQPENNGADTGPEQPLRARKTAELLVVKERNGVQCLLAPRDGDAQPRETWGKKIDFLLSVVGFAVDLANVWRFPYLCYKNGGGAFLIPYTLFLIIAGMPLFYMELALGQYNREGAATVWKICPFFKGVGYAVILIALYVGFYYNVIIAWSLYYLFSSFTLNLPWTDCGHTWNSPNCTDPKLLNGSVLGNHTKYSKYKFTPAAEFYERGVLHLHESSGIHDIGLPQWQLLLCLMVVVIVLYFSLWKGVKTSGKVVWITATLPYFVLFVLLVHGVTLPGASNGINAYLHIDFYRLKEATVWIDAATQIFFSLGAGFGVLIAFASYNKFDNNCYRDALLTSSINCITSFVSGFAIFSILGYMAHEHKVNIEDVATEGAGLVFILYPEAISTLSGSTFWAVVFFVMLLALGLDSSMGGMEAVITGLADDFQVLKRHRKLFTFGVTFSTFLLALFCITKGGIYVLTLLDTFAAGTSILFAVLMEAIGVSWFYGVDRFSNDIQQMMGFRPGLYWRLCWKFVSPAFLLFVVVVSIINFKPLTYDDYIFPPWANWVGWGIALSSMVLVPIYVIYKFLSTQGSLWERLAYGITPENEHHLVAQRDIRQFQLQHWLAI

[4] = biological target: T1, Sodium-dependent serotonin transporter; assay: Displacement of [3H]paroxetine from SERT

Sodium-dependent dopamine transporter, sequence (Q01959 whole entry): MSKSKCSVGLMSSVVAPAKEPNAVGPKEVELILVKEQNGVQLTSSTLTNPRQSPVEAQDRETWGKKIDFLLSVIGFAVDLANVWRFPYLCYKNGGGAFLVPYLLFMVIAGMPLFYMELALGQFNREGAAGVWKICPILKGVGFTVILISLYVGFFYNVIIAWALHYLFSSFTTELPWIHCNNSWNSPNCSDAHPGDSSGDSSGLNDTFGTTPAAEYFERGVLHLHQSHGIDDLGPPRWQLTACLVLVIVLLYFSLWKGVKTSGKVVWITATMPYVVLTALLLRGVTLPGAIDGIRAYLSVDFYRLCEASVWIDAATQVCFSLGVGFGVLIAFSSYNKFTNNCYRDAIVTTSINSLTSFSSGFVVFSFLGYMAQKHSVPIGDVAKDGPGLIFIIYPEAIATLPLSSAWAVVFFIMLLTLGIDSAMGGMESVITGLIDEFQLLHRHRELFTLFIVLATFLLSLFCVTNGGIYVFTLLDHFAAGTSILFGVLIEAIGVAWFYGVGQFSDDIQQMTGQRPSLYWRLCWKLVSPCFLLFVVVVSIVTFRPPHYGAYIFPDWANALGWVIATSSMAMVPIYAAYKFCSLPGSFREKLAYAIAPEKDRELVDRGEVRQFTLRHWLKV
T1 sequence (P31645 whole entry): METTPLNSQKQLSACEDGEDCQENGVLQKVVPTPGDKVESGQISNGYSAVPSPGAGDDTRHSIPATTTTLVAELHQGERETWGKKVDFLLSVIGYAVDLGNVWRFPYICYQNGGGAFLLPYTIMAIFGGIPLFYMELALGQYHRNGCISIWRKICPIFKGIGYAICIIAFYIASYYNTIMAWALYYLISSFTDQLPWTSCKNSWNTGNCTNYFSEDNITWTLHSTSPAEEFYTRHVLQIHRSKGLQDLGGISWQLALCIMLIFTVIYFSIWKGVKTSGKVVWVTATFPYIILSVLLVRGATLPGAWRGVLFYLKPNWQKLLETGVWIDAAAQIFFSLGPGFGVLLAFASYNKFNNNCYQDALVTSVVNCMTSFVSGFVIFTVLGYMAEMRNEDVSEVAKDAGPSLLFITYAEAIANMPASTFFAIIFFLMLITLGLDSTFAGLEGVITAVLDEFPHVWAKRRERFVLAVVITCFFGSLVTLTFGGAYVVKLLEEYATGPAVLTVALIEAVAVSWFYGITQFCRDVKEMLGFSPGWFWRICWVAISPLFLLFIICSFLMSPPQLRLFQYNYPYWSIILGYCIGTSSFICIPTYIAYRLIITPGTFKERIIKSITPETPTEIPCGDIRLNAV

| SMILES | IC50 [1] | IC50 [2] | IC50 [3] | Ki [4] |
| --- | --- | --- | --- | --- |
| COC(c1ccc(C)cc1N)c1ccccc1CN(C)C (centres undefined) | > 0.1 µM | > 0.1 µM | > 0.1 µM |  |
| Cc1ccc(C(=O)c2ccccc2CN(C)C)c(N)c1 | > 0.1 µM | > 0.1 µM | > 0.1 µM |  |
| Cc1ccc(Sc2ccccc2CN(C)C)c(N)c1 |  | > 0.1 µM | > 0.1 µM | 0.00165 µM |
| Cc1ccc(S(=O)(=O)c2ccccc2CN(C)C)c(N)c1 | > 0.1 µM | > 0.1 µM | > 0.1 µM |  |
| Cc1ccc(N(c2ccccc2)c2ccccc2CN(C)C)c(N)c1 | > 0.1 µM | > 0.1 µM | > 0.1 µM |  |
| Cc1ccc([S+]([O-])c2ccccc2CN(C)C)c(N)c1 (centres undefined) |  | > 0.1 µM | > 0.1 µM | 0.00415 µM |
| Cc1ccc(N(Cc2ccccc2)c2ccccc2CN(C)C)c(N)c1 | > 0.1 µM | > 0.1 µM | > 0.1 µM |  |
| Cc1ccc(N)c(-c2ccccc2CN(C)C)c1 | > 0.1 µM | > 0.1 µM | > 0.1 µM |  |
| Cc1ccc(Nc2ccccc2CN(C)C)c(N)c1 |  | > 0.1 µM | > 0.1 µM | 0.0103 µM |
| Cc1ccc(C(O)c2ccccc2CN(C)C)c(N)c1 (centres undefined) | > 0.1 µM | > 0.1 µM | > 0.1 µM |  |
| Cc1ccc(Oc2ccccc2CN(C)C)c(N)c1 |  | > 0.1 µM | > 0.1 µM | 0.00053 µM |
| CCN(c1ccc(C)cc1N)c1ccccc1CN(C)C | > 0.1 µM | > 0.1 µM | > 0.1 µM |  |
| Cc1ccc(N(C)c2ccccc2CN(C)C)c(N)c1 | > 0.1 µM | > 0.1 µM | > 0.1 µM |  |
